Publication PMC10176470, “Engaging a Non-catalytic Cysteine Residue Drives Potent and Selective Inhibition of Caspase-6” (Journal of the American Chemical Society, 2023)

Legend:
Type in all cases: cell-based
[1] = biological target: proteins of HEK293T cells transiently overexpressing caspase-6 (Homo sapiens, UniProt Q9UBE0); details: protein SAE1 (Q9UBE0); exp_ref Probe; analysis C6
[2] = biological target: proteins of HEK293T cells transiently overexpressing caspase-6 (Homo sapiens, UniProt P62241); details: exp_ref Probe; protein RPS8 (P62241); analysis C6
[3] = biological target: proteins of HEK293T cells transiently overexpressing caspase-6 (Homo sapiens, UniProt P09211); details: exp_ref Probe; protein GSTP1 (P09211); analysis C6
proteins of HEK293T cells transiently overexpressing caspase-6 (Homo sapiens, UniProt P09211), sequence (P09211 whole entry): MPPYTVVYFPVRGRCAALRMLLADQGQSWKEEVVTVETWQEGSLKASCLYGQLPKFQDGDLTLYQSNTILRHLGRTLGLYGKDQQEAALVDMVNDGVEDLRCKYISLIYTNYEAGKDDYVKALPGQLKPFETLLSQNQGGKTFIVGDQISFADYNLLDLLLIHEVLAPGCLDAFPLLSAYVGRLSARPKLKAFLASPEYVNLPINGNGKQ

[4] = biological target: proteins of HEK293T cells transiently overexpressing caspase-6 (Homo sapiens, UniProt P49588); details: Probe; protein AARS P49588
proteins of HEK293T cells transiently overexpressing caspase-6 (Homo sapiens, UniProt P49588), sequence (P49588 whole entry): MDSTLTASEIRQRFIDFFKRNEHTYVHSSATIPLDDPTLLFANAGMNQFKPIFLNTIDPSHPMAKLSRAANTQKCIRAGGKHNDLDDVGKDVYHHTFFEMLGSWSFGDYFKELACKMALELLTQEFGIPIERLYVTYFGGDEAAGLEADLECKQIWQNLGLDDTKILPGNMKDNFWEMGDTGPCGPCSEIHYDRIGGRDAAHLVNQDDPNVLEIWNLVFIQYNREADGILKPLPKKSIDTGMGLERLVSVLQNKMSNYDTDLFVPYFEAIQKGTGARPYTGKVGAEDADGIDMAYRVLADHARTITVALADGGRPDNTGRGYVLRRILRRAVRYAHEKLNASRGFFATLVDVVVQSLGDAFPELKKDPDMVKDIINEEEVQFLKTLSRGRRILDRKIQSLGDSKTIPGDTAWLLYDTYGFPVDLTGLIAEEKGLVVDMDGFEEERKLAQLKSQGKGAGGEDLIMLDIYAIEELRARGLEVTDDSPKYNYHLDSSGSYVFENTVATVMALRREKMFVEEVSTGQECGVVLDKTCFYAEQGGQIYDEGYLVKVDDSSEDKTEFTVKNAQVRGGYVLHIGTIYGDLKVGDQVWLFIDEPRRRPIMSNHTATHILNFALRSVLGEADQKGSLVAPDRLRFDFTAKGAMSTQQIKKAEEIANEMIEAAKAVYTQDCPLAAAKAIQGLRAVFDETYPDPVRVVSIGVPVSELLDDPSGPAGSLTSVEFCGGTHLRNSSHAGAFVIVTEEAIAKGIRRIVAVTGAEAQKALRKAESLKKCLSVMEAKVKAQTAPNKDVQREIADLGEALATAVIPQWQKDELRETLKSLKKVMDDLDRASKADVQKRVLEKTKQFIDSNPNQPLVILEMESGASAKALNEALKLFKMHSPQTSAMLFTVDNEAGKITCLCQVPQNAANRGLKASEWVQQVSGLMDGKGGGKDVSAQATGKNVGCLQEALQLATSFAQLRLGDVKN

[5] = biological target: proteins of HEK293T cells transiently overexpressing caspase-6 (Homo sapiens, UniProt P62280); details: protein RPS11 (P62280), analysis C6
[6] = biological target: proteins of HEK293T cells transiently overexpressing caspase-6 (Homo sapiens, UniProt P34932); details: Probe; protein HSPA4 P34932
proteins of HEK293T cells transiently overexpressing caspase-6 (Homo sapiens, UniProt P34932), sequence (P34932 whole entry): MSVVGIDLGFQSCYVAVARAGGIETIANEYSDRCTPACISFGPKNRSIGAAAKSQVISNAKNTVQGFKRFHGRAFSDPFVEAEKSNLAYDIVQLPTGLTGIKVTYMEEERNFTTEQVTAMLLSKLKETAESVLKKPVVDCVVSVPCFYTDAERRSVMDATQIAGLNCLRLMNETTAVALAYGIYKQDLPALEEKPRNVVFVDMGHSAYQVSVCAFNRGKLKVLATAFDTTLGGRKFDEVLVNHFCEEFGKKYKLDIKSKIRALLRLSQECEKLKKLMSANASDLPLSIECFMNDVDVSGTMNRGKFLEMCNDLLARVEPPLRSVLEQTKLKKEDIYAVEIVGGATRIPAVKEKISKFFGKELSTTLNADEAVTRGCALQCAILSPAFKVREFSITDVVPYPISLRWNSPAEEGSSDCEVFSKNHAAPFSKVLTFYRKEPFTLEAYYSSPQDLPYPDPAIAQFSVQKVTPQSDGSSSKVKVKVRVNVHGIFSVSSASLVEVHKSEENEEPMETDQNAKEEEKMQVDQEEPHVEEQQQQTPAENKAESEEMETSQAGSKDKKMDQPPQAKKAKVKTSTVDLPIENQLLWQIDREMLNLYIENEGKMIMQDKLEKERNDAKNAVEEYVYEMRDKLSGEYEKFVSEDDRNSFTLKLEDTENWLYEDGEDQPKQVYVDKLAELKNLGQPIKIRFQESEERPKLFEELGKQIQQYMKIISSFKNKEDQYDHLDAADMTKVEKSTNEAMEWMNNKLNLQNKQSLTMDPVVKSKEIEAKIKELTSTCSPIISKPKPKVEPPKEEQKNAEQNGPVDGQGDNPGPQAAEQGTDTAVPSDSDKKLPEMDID

[7] = biological target: proteins of HEK293T cells transiently overexpressing caspase-6 (Homo sapiens, UniProt P21796); details: Probe; protein VDAC1 P21796
[8] = biological target: proteins of HEK293T cells transiently overexpressing caspase-6 (Homo sapiens, UniProt Q15233); details: exp_ref Probe; protein NONO (Q15233); analysis C6
proteins of HEK293T cells transiently overexpressing caspase-6 (Homo sapiens, UniProt Q15233), sequence (Q15233 whole entry): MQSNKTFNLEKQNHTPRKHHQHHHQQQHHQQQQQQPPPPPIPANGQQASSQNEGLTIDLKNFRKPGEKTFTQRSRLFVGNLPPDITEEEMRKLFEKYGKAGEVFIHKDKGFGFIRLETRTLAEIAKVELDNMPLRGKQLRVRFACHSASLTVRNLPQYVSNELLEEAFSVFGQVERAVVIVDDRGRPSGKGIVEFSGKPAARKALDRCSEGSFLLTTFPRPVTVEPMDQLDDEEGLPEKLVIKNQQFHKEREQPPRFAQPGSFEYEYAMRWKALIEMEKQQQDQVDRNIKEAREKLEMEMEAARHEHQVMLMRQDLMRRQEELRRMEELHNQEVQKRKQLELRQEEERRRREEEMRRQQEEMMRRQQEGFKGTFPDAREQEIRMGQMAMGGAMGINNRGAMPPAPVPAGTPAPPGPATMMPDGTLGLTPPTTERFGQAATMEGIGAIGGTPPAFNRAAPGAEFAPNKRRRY

[9] = biological target: proteins of HEK293T cells transiently overexpressing caspase-6 (Homo sapiens, UniProt P13667); details: Probe; protein PDIA4 P13667
[10] = biological target: proteins of HEK293T cells transiently overexpressing caspase-6 (Homo sapiens, UniProt P0DPI2); details: exp_ref Probe; protein C21orf33 (P30042); analysis C6
[11] = biological target: proteins of HEK293T cells transiently overexpressing caspase-6 (Homo sapiens, UniProt P32119); details: exp_ref Probe; protein PRDX2 (P32119); analysis C6
[12] = biological target: proteins of HEK293T cells transiently overexpressing caspase-6 (Homo sapiens, UniProt Q9H3N1); details: protein TMX1 (Q9H3N1); exp_ref Probe; analysis C6
proteins of HEK293T cells transiently overexpressing caspase-6 (Homo sapiens, UniProt Q9H3N1), sequence (Q9H3N1 27-280): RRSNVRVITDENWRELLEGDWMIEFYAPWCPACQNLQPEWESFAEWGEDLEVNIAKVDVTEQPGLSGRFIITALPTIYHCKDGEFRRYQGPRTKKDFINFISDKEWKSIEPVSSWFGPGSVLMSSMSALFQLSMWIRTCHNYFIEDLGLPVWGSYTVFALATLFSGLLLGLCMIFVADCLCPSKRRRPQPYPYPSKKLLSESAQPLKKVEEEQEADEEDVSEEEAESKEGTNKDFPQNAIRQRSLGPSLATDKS

[13] = biological target: proteins of HEK293T cells transiently overexpressing caspase-6 (Homo sapiens, UniProt P26639); details: exp_ref Probe; protein TARS (P26639); analysis C6
[14] = biological target: proteins of HEK293T cells transiently overexpressing caspase-6 (Homo sapiens, UniProt P17987); details: protein TCP1 (P17987)
proteins of HEK293T cells transiently overexpressing caspase-6 (Homo sapiens, UniProt P17987), sequence (P17987 whole entry): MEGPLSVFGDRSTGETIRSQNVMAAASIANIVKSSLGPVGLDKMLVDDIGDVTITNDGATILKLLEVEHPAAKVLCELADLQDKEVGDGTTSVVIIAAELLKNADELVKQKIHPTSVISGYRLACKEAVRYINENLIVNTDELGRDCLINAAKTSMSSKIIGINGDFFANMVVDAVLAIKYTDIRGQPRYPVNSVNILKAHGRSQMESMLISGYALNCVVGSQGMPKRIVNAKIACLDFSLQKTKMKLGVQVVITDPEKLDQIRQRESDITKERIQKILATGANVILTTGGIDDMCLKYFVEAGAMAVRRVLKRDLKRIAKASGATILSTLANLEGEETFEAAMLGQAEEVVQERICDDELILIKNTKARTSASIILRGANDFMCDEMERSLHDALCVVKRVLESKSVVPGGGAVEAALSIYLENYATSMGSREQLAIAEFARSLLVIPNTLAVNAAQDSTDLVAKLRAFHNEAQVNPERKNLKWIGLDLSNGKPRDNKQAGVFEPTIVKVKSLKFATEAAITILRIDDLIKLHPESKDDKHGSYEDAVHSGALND

[15] = biological target: proteins of HEK293T cells transiently overexpressing caspase-6 (Homo sapiens, UniProt P49327); details: exp_ref Probe; protein FASN (P49327); analysis C6
[16] = biological target: T1, proteins of HEK293T cells transiently overexpressing caspase-6 (Homo sapiens, UniProt O00567); details: exp_ref Probe; protein NOP56 (O00567); analysis C6
T1 sequence (O00567 1-594): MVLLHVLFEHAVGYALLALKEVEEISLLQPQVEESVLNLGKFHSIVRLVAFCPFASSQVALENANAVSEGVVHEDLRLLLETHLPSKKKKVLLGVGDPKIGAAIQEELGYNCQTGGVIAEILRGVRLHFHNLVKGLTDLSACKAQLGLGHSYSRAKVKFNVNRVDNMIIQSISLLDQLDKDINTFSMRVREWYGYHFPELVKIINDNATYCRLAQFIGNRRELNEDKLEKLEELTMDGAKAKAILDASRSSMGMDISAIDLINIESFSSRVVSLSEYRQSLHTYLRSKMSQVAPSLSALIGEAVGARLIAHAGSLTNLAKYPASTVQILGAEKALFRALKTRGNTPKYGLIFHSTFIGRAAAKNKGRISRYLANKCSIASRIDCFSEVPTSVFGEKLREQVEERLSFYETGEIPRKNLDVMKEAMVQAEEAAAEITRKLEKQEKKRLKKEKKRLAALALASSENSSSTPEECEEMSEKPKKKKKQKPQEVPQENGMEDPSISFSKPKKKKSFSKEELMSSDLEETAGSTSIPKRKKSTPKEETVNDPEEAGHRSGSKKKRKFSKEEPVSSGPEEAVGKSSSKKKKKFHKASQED

[17] = biological target: proteins of HEK293T cells transiently overexpressing caspase-6 (Homo sapiens, UniProt P22102); details: exp_ref Probe; protein GART (P22102); analysis C6
proteins of HEK293T cells transiently overexpressing caspase-6 (Homo sapiens, UniProt P22102), sequence (P22102 whole entry): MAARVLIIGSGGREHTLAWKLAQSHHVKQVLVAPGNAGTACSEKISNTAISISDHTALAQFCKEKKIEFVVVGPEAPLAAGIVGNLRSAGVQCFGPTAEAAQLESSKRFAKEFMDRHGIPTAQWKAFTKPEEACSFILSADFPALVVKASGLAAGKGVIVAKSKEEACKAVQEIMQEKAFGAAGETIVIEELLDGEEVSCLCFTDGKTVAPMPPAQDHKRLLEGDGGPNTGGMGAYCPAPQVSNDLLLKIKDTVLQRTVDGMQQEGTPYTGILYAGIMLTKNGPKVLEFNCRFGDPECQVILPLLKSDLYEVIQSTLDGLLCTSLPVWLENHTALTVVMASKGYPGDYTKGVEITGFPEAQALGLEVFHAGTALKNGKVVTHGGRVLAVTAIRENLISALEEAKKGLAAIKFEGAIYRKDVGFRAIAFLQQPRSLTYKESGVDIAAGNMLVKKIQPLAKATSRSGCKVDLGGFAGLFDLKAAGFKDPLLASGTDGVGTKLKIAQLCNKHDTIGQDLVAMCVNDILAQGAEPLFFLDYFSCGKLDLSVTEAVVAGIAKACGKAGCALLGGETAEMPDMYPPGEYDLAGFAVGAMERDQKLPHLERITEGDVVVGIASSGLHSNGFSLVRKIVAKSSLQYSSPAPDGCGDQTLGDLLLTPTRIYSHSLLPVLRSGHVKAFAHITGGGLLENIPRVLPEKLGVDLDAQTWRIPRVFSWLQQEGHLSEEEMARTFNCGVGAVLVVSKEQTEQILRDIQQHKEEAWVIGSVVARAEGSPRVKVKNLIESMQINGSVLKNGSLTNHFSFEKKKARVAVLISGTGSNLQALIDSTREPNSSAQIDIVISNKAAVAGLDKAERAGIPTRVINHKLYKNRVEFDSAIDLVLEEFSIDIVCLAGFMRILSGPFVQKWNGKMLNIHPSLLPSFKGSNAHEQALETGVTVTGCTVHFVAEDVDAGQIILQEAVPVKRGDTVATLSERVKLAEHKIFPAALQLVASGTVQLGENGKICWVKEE

[18] = biological target: proteins of HEK293T cells transiently overexpressing caspase-6 (Homo sapiens, UniProt P52292); details: exp_ref Probe; protein KPNA2 (P52292); analysis C6
[19] = biological target: proteins of HEK293T cells transiently overexpressing caspase-6 (Homo sapiens, UniProt Q6P2Q9); details: exp_ref Probe; protein PRPF8 (Q6P2Q9); analysis C6
[20] = biological target: proteins of HEK293T cells transiently overexpressing caspase-6 (Homo sapiens, UniProt P23528); details: protein CFL1 (P23528)
proteins of HEK293T cells transiently overexpressing caspase-6 (Homo sapiens, UniProt P23528), sequence (P23528 whole entry): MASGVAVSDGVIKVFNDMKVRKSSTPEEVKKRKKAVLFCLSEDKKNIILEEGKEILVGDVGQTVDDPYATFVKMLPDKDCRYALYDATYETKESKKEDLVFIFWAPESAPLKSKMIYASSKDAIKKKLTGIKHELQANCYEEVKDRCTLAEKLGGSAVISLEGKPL

proteins of HEK293T cells transiently overexpressing caspase-6 (Homo sapiens, UniProt Q9UBE0), sequence (Q9UBE0 whole entry): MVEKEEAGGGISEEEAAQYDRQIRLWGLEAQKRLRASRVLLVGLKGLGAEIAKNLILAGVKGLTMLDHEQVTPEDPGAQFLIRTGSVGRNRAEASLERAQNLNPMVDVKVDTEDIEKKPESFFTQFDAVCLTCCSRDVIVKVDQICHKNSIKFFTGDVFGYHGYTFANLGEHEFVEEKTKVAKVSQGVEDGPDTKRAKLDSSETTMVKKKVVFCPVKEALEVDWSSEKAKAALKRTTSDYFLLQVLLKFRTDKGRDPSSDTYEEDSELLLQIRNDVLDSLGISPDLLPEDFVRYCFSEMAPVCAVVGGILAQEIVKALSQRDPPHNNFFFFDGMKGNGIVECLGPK

C#CCOc1ccc([C@@H]2C[C@@H](C(=O)Nc3ccc(OC(F)(F)F)cc3)CN(S(=O)(=O)C=C)C2)cc1 (relative stereo) [13-t] gave an enrich.exp.med [1] of 1.338, an enrich.exp.med [2] of 0.3889 and an enrich.exp.med [3] of 0.03311. For the same compound, the enrich.exp.med [4] was -2.083, the enrich.exp.med.lin ([5]; Expt Probe) was 5.0581 and the enrich.exp.med.log2 ([5]; Expt Probe) was 2.3386. It also gave an enrich.exp.med ([5]; exp_ref Probe) of 2.3386, an enrich.exp.med [6] of -1.079 and an enrich.exp.med [7] of -1.18. For the same compound, the enrich.exp.med [8] was 0.7906, the enrich.exp.med [9] was -0.4487 and the enrich.exp.med [10] was -0.3681. For the same compound, the enrich.exp.med [11] was 0.2933, the enrich.exp.med [12] was 2.103 and the enrich.exp.med [13] was 0.1344. For the same compound, the enrich.exp.med ([14]; exp_ref Probe, analysis C6) was 0.8619, the enrich.exp.med.lin [14] was 1.8174 and the enrich.exp.med.log2 [14] was 0.8619. It also gave an enrich.exp.med [15] of -0.2577, an enrich.exp.med [16] of -0.321 and an enrich.exp.med [17] of 0.2203. For the same compound, the enrich.exp.med [18] was 0.5159, the enrich.exp.med [19] was 0.2125 and the enrich.exp.med ([20]; exp_ref Probe, analysis C6) was 0.4078. For the same compound, the enrich.exp.med.lin [20] was 1.327 and the enrich.exp.med.log2 [20] was 0.4078.
